# Measured values from patent US20210308286A1 (The Johns Hopkins University, priority 2018, published 2021).
# Like-named read-outs stand apart in the source and are kept apart here. Non-standard residues stand in square brackets, D forms with d. Residues, ends and D or L forms follow the SMILES beside them. ξ: configuration not given here. *: point of attachment. X1 = C=Cc1c(C)c2cc3nc(c4c5[nH]c(cc6nc(cc1[nH]2)C(C)=C6CC)c(C)c5C(=O)C4)[C@@H](CCC(=O)*)[C@H]3C; X2 = O=C(O)CC[C@H](NC(=O)N[C@@H](CCCCNC(=O)CCCCCCC(=O)*)C(=O)O)C(=O)O; ξE = NC(CCC(=O)O)C(=O)O; ξD = NC(CC(=O)O)C(=O)O; ξK = NCCCCC(N)C(=O)O; ξV = CC(C)C(N)C(=O)O; ξS = NC(CO)C(=O)O
# Experiments:
# [1] = Plasma blood clearance (pharmacokinetics) after intravenous injection; assay type: in vivo, BALB/c mice; conditions: for half-life: BALB/c, 20 nmol per animal, 20 nmol intravenous, plasma fluorescence over 48 hours, n=5
# [2] = system: PSMA+ (PC3-ML-1124) and PSMA− (PC3-ML-1117) metastatic nodules; assay: Fluorescence detection of prostate metastasis; assay type: in vivo, mice; conditions: 20 nmol via tail vein, 24 hours post-injection
# [3] = system: PSMA+ PC3 PIP subcutaneous tumor
# PSMA+ PC3 PIP tumor = assay: In vivo PSMA inhibition with excess […], ex vivo tumor fluorescence; design: species or system athymic male nude mice; conditions: 15 nmol LC-Pyro intravenous, 24 hours post-injection
# [4] = system: PSMA+ PC3 PIP orthotopic prostate tumor; assay: ^64Cu-LC-Pyro PET/CT and gamma-counting biodistribution, PSMA+ orthotopic model; conditions: PSMA+ PC3 PIP orthotopic tumor mice, 24 hours post-injection, mean ± SD, n=4
# Description: Organs of interest, including the tumor, prostate, seminal vesicles, testes, heart, spleen, lungs, liver, kidneys, adrenal, stomach, small intestine, large intestine, skin, fat, muscle, bone and brain were excised, washed in saline, dried with absorbent tissue, weighed, and counted on a gamma-counter Wizard® 1480 well-type automatic gamma counter (PerkinElmer Inc.; Shelton, Conn.). Radioactivity measured in each organ was decay-corrected and expressed as the percentage of the injected dose per gram of tissue (% ID/g).
# PSMA+ PC3 PIP cells = assay type: cell-based; conditions: flow cytometry, time-dependent
# PSMA [5] = biological target: T1, PSMA (Homo sapiens, UniProt Q04609); assay: biochemical
# T1 construct: The amount of glutamate released from NAAG hydrolysis by the LNCaP lysates was determined; endogenous in cells; host or cells: LNCaP cell lysate
# Target sequence in this assay (Q04609 whole entry, looked up): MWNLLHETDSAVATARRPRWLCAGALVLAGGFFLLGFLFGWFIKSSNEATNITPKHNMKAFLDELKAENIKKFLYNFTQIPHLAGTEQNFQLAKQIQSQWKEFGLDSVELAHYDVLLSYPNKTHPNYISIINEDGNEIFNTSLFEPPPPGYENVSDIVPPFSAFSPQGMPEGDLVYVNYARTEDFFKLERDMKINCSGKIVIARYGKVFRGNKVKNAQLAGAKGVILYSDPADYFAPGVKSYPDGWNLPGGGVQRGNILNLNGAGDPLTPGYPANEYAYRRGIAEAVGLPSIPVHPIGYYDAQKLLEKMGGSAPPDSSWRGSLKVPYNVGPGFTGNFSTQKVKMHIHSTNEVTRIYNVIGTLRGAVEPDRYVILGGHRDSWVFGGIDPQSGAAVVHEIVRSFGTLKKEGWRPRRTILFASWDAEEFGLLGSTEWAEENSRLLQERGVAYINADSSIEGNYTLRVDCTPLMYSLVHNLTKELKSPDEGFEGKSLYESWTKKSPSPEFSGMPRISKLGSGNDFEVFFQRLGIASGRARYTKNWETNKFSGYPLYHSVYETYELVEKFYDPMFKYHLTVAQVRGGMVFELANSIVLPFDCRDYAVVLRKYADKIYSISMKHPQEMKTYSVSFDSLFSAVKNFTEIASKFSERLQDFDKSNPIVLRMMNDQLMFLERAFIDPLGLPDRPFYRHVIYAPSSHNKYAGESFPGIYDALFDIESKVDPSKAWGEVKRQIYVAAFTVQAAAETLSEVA
# PSMA [6] = biological target: T1, PSMA; assay: Fluorescence-based PSMA inhibition assay (NAAG hydrolysis by LNCaP cell lysates, Amplex Red); assay type: biochemical; conditions: 4 μM NAAG, Cheng-Prusoff conversion, n=3
# Description: Briefly, lysates of LNCaP cells (25 μL in 0.1 M Tris-HCl, pH 8.0) were incubated with the serial dilutions of the test compounds (in 12.5 μL of 0.1 M Tris-HCl, pH 8.0) in the presence of 4 μM N-acetylaspartylglutamate (NAAG) (in 12.5 μL of 0.1 M Tris-HCl, pH 8.0) for 120 minutes. The reaction mixtures were incubated with the working solution (50 μL) of the Amplex Red Glutamic Acid Kit (Molecular Probes Inc., Eugene, Oreg.) for 60 minutes. The amount of glutamate released from NAAG hydrolysis by the LNCaP lysates was determined by measuring the fluorescence generated from the reactions using the Cytation 5 plate reader (BioTek, Winooski, Vt.) with excitation at 545 nm and emission at 590 nm. […] Enzyme inhibitory constants (Ki values) were generated using the Cheng-Prusoff conversion. […] Data analysis was performed using GraphPad Prism software (n=3).
# Target sequence in this assay (Q04609 whole entry): as the sequence (Q04609 whole entry, looked up) above
# [7] = system: PSMA+ PC3 PIP and PSMA− PC3 flu subcutaneous tumors; conditions: 20 nmol intravenous; for tumor accumulation, whole-animal in vivo fluorescence imaging: 24 hours post-administration; for ex vivo organ distribution / clearance route: 24 hours, ex vivo fluorescence
# [8] = system: low-risk, localized prostate cancer; conditions: vascular targeted PDT, cited from earlier work
# [9] = LC-Pyro+Laser group, 24 hours post-PDT
structure (smiles),measurement,setting,value
C=Cc1c(C)c2cc3nc(c4c5[nH]c(cc6nc(cc1[nH]2)C(C)=C6CC)c(C)c5C(=O)C4)[C@@H](CCC(=O)NCC(=O)NC(CC(=O)O)C(=O)NC(CCC(=O)O)C(=O)NC(C(=O)NC(CC(=O)O)C(=O)NCC(=O)NC(CO)C(=O)NCC(=O)NC(CCCCNC(=O)CCCCCCC(=O)NCCCC[C@H](NC(=O)N[C@@H](CCC(=O)O)C(=O)O)C(=O)O)C(N)=O)C(C)C)[C@H]3C (some centres unmarked) [LC-Pyro] (X1-G[ξD][ξE][ξV][ξD]G[ξS]G[ξK](X2)-NH2; N-terminus and C-terminus assumed),"plasma circulation time, fold longer than SC-Pyro (single lysine linker analog)","[1]; BALB/c mice, intravenous",8.5 fold
same,half-life,"[1]; mouse, in vivo, iv, read-out: t1/2, fast (plasma, two-compartment model) (converted)",0.5 h
same,half-life,"[1]; mouse, in vivo, iv, read-out: t1/2, slow (plasma half-life, two-compartment model) (converted)",10 h
same,"uptake in metastatic nodules, in situ fluorescence imaging",[2],selective uptake
same,therapeutic effect without laser exposure,"[3]; LC-Pyro only, 50 nmol intravenous",No therapeutic effect
same,skin phototoxicity upon daylight exposure,"[3]; LC-Pyro with no laser treatment, 50 nmol intravenous",no sign of skin phototoxicity
same,body weight,[3]; LC-Pyro+Laser group,no decrease in body weight
same,H&E staining of tumor sections,[3]; [9],significant damage of tissue architecture
same,TUNEL staining of tumor sections,[3]; [9],significant cell death
same,tumor regrowth after day 22,"[3]; LC-Pyro+Laser group, n=4",tumor regrowth was observed in two animals
same,residual or recurrent disease 44 days post-PDT,"[3]; LC-Pyro+Laser group, the two remaining animals",no signs of residual or recurrent disease
same,tumor growth,"[3]; LC-Pyro+Laser: 30 nmol intravenous, 671-nm laser 100 J/cm^2 at 6 hours, single dose, n=4",significant tumor growth inhibition
same,accumulation in excised PSMA+ PC3 PIP tumors with DCIBzL (PSMA blocker) injected 30 minutes beforehand,PSMA+ PC3 PIP tumor,less accumulation
same,"biodistribution, Tumor",[4],9.74 % ID/g
same,selectivity of uptake in PSMA+ PC3 PIP vs PSMA− PC3 flu cells,PSMA+ PC3 PIP cells,nonselective cell-penetrating properties
same,Ki,PSMA [5],88 pM
same,Ki inhibitory activity against PSMA,PSMA [6],sub-nanomolar
same,"tumor accumulation, whole-animal in vivo fluorescence imaging",[7],selective accumulation to the PSMA+ after 24 hours
same,ex vivo organ distribution / clearance route,[7],liver and kidney clearance
C=Cc1c(C)c2cc3nc(c4c5[nH]c(cc6nc(cc1[nH]2)C(C)=C6CC)c(C)c5C(=O)C4)[C@@H](CCC(=O)N[C@H](CCCCNC(=O)CCCCCCC(=O)NCCCC[C@H](NC(=O)N[C@@H](CCC(=O)O)C(=O)O)C(=O)O)C(N)=O)[C@@H]3C [SC-Pyro],"t1/2, slow (plasma half-life, two-compartment model)","[1]; mouse, in vivo, iv",1.17 h
same,Ki inhibitory activity against PSMA,PSMA [6],sub-nanomolar
same,"tumor accumulation, whole-animal in vivo fluorescence imaging",[7],negligible accumulation within both the PSMA− and PSMA+ tumors
same,ex vivo organ distribution / clearance route,[7],metabolized and collected in the gallbladder
CC[C@H]1c2cc3[n-]c(c(CC(=O)OC)c4nc(cc5[n-]c(cc(n2)[C@@H]1C)c(C(C)=O)c5C)[C@@H](C)[C@@H]4CCC(=O)[O-])c(C(=O)NCCS(=O)(=O)[O-])c3C.[H+].[H+].[Pd+2] [padeliporfin],patients with disease-free biopsy,[8]; 28% with standard-of-care,49%
same,percentage of patients with progressive disease,[8]; 58% with standard-of-care,28%
C=Cc1c(C)c2cc3nc(c4c5[nH]c(cc6nc(cc1[nH]2)C(C)=C6CC)c(C)c5C(=O)C4)[C@@H](CCC(=O)N[C@H](CCCCNC(=O)CCCCCCC(=O)NCCCC[C@H](NC(=O)N[C@@H](CCC(=O)O)C(=O)O)C(=O)O)C(N)=O)[C@H]3C [SC-Pyro],Ki,PSMA [5],200 pM
